From US20240327506A1, “METHODS AND COMPOSITION FOR THE SELECTIVE ENHANCEMENT OF ADOPTIVE CELL THERAPY” (MaineHealth, priority 2023, published 2024)

Tests used:
[1] = tested on: primary murine CD4+ Treg cells; test: Migration of primary CD4+ Treg cells on denatured collagen type-IV; type: cell-based; details: Treg from spleens of B16F10 tumor bearing mice, compared to CP
Procedure: Briefly, mice (C57BL/6) were injected subcutaneously with B16F10 cells. B16F10 tumors were allowed to grow for 14-days to allow formation of solid malignant melanomas. Spleens from tumor bearing mice were dissected and primary murine CD4+ Treg cells were isolated and analyzed for the effects of the soluble collagen peptide (P2) or control peptide (CP) on cell migration on denatured collagen type-IV. Data bars represent mean CD4+ Treg cell migration+SE from 3 wells per condition.
Given our surprising finding that CD4+ Treg cell migration is enhanced on denatured collagen-IV as compared to native collagen-IV, we next tested whether CD4+ Treg cell migration through denatured collagen-IV is altered by endogenously generated soluble RGDKGE (SEQ ID NO: 1) collagen peptide P2. For these experiments, mice (C57BL/6) were injected subcutaneously with B16F10 cells. B16F10 tumors were allowed to grow for 14-days to allow formation of solid malignant melanomas. Spleens from tumor bearing mice were dissected and primary murine CD4+ Treg cells were isolated and analyzed for the effects of the soluble collagen peptide (P2) or control peptide (CP) on cell migration on denatured collagen type-IV. […]

β3 integrin = biological target: T1, β3 integrin (Homo sapiens, UniProt P05106+P06756); test: Western blot of β3 integrin phosphorylation in Jurkat T-cells after peptide stimulation; type: cell-based; details: compared to control peptide CP
T1 construct: we next stimulated human Jurkat T-cells or primary CD8+ T-cells with a synthetic version of the soluble RGDKGE; endogenous in cells; host or cells: Jurkat T-cells
T1 sequence (P05106 27-788): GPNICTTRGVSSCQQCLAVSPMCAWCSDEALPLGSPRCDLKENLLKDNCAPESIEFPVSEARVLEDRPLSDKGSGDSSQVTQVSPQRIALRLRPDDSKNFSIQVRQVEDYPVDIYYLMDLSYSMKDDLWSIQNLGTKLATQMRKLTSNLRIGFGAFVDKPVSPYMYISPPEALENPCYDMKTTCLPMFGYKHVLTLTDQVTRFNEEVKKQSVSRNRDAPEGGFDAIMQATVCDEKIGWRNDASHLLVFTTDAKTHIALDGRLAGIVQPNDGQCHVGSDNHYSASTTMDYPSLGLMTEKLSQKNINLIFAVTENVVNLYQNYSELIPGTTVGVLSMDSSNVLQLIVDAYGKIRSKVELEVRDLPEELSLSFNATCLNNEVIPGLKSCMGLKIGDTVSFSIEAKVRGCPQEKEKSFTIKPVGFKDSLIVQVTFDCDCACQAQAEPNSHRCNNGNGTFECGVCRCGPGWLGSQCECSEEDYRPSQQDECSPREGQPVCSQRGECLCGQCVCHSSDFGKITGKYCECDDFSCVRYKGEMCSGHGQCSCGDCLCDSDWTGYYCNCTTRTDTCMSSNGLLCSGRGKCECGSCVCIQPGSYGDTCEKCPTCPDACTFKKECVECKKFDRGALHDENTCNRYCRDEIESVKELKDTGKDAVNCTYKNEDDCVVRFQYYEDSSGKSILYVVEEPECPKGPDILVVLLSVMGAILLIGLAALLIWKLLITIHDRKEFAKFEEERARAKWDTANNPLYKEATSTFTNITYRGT
T1 sequence (P06756 31-889 limits assumed): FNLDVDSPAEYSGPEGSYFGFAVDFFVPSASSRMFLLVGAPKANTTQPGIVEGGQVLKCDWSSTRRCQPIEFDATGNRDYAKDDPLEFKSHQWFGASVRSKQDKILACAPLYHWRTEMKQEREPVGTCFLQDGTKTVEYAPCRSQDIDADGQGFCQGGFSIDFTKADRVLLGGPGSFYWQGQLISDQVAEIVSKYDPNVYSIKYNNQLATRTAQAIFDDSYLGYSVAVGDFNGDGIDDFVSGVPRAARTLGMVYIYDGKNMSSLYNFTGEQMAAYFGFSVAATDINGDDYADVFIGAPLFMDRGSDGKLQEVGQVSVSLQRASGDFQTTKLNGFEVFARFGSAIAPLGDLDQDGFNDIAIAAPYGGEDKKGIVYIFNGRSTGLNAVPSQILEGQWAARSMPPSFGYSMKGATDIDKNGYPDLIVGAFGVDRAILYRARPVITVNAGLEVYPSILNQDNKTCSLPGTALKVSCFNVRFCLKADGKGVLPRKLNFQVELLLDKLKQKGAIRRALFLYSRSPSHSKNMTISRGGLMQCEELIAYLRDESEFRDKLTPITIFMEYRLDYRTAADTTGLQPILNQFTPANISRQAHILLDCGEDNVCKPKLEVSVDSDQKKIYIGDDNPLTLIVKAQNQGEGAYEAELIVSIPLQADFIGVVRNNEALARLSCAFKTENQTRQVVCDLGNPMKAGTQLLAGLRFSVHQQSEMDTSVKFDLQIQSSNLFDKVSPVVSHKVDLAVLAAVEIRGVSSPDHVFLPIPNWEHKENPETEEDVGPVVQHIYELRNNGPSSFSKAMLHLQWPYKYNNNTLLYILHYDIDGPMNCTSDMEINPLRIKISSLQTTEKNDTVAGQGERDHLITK
T1 sequence (P06756 891-1048 partner limits assumed): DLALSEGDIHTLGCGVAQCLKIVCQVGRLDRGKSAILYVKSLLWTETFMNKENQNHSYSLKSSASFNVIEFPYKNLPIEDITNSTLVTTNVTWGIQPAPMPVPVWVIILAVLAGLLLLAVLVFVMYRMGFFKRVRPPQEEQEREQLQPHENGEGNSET
Procedure: FIGS. 2A-2F. Detection of RGDKGE (SEQ ID NO: 1)-containing collagen peptide in malignant tumor cells and expression of key signaling molecules in T-cells. Briefly, whole cell lysates and serum free concentrated conditioned medium was prepared from tumor cells lines. FIG. 2A. Western blot analysis of whole cell lysates from human C8161 and murine B16F10 melanoma cells for the expression of the low molecular weight 16 kDa RGDKGE (SEQ ID NO: 1)-containing collagen peptide (XL313) or actin as a loading control. FIG. 2B. […]
Whole cell and CAM tissue lysates were collected in RIPA buffer (10 mM Tris-HCl, pH 8.0; 1 mM EDTA; 0.5 mM EGTA; 1% Triton X-100; 0.1% Sodium Deoxycholate; 0.1% SDS; 140 mM NaCl) supplemented with 1× protease inhibitor and 1× phosphatase inhibitor and were run on polyacrylamide gels using denaturing conditions. […] Western blot bands were quantified using Image J software based on pixel intensity.
We previously made the surprising observation that a small bioactive collagen peptide containing the core amino acid sequence RGDKGE (SEQ ID NO: 1) could be generated inside a subset of M2-like activated macrophages as well as a variety of other malignant tumor cells, and then actively secreted outside the cells (11-13). Importantly, minimal levels of this soluble collagen peptide was detected in normal cells (13). […]

**Q.** Which “mean CD4+ Treg cell migration cell count” value [1] does the source give for “QGPRGDKGE (CQGPRGDKGEC; Synthetic: Synthetic collagen RGD containing peptide P-2) [Peptide P2, synthetic version of the soluble RGDKGE-containing collagen peptide]” here?
**A.** significant increase

**Q.** What about the β3 integrin phosphorylation (β3 integrin) of the same sequence?
**A.** enhanced β3 integrin phosphorylation
